From patent US12070452B2, “Compounds targeting HSP110 protein for cancer treatment” (INSERM (Institut National de la Santé et de la Recherche …, priority 2018, dated 2024)

Columns and labels:
[1] = target: T1, HSP110:STAT3 complex (Homo sapiens, UniProt Q92598); test: Immunoprecipitation of HSP110:STAT3 complex in SW480 cells; type: cell-based; settings: SW480 shCtrl cells, 10 μM, 48 h
T1 construct: disrupting HSP110:STAT3 complex within the cell using human colorectal SW480 cancer cells; endogenous in cells; host or cells: SW480 cells carrying control shRNA (shCtrl); sh110 cells as HSP110-depleted control
T1 sequence (Q92598 2-858 limits assumed, one chain of several): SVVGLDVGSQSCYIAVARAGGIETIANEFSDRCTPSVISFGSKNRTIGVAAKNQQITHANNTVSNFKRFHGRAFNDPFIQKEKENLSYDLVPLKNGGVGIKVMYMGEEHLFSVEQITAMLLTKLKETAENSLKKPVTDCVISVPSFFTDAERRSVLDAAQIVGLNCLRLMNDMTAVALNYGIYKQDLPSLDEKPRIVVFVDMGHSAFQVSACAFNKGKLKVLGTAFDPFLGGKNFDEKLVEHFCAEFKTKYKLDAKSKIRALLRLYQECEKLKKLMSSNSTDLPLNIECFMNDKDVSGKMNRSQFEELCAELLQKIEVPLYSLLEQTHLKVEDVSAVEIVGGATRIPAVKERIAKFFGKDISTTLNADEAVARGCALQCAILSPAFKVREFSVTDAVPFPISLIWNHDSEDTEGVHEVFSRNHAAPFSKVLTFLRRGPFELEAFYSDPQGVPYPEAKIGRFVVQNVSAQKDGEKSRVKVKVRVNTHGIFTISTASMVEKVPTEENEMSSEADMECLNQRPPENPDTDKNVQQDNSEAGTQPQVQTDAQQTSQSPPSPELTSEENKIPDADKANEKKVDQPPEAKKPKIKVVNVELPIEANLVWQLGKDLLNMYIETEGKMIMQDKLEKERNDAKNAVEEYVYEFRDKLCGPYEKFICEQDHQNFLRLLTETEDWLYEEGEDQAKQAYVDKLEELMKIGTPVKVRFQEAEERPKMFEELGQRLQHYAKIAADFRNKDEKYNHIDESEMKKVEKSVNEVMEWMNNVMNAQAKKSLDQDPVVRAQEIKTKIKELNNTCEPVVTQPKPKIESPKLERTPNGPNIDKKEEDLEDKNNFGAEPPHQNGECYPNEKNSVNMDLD
Procedure: FIG. 2A: Immunoprecipitation (IP) analysis of HSP110 protein (first line), STAT3 protein (second line) compared with total Immunoglobuline (Ig) and actin in SW480 cells treated with (from left to the right column) non-relevant antibody as control (called NT a Normal rabbit IgG (sc-2027) from Santa Cruz Biotechnologies), compound 52 (related to formula (III)), compound 33 (related to formula (II)), compound 51 (related to formula (IV)) and comparative compound 61 at a concentration of 10 μM during 48 h on shCtrl cells transfected with shRNA for shRNA control (referenced ShCtrl IP:STAT3 for the five first columns) or HSP110-silencing (sh110) (referenced sh110-IP:STAT3 for the two last columns) (from the left to the right columns). Immunoprecipitation analysis of HSP110 (first line), STAT3 (second line) compared with total Ig and actin (second blot in the right) is observed with shCtrl cells transfected with shRNA for shRNA control (shCtrl) or HSP110-silencing (sh110) (left to right columns).
FIG. 2B: Quantification of HSP110:STAT3 disruption in percentage considering the total amount of HSP110 protein normalized by the signal intensity of the Ig band of FIG. 1 panel A. (Ordinate: Percentage of STAT3:HSP110 protein interaction (scale 50)). The histogram measured quantification in percentage for ShCtrl IP: STAT3 treated with Ctrl, compounds 52, 33, 51 and comparative compound 61, and for shCtrl cells transfected with shRNA for shRNA control referenced ShCtrl IP: STAT3) or HSP110-silencing (sh110) (referenced sh110-IP: STAT3) (from the left to the right column)
Immunoprecipitation test were realized on human colorectal cancer cells (SW480 and HCT116 cell lines), using a control depleted in HSP110 called Sh110 and a not depleted cells in HSP110. STAT3 phosphorylation is then […] by compounds 33 and 52. Depletion of HSP110 in the negative control blocked the phosphorylation of STAT3 without affecting STAT3 overall levels (FIGS. 2 and 3).

[2] = tested on: HCT116 cells; test: Cell proliferation, Cell Trace Violet flow cytometry, HCT116; type: cell-based, human; settings: HCT116 cells with shRNA control, 10 μM, 96 h
Procedure: FIG. 4B: Relative quantification of cell proliferation in HCT116 cells transfected with shRNA for shRNA control (shCtrl) (from the first to the fourth columns from left to right) or HSP110-silencing (sh110) ((from the fifth to the last columns, from left to right) left to right) treated with Ctrl (DMSO), compound 33, compound 52, and comparative compound 61 at a concentration of 10 μM during 96 h (Histogram from the left to the right). Ordinate: Percentage of HCT116 cell proliferation (scale 20) for the lower figure. Statistical analysis has been performed by ANOVA **: (p<0.05); ***: p<0.005. Western blot of HSP110 and actin (first and second line of blots) for the shCtrl HCT116 cells and sh110 HCT116 cells (first and second columns).
Colorectal cells lines were purchased from the American Type Culture Collection. CT-26 and HCT116 were cultured in Roswell Park Memorial Institute 1640 medium. […]
Proliferation was determined by staining cells with Cell Trace Violet (Invitrogen-C34557) according to the manufacturer's procedure. Cell divisions were detected over 96 h by flow cytometry (LSRII cytometer) and the number of cell generations was estimated by ModFit software. […]

[3] = tested on: Bcl2 and Bcl-xL; test: Western blot of anti-apoptotic proteins Bcl2 and Bcl-xL in DLBCL cell lines; type: cell-based, human; settings: TMD8 and HBL1, 76 h in vitro treatment
Procedure: FIG. 10D: Expression analysis of BcL2 (first line), BcL-XL (second line), and Actin (third line) in TMD8 human B cell lymphoma cell line or in HBL1 human diffuse large B-cell lymphoma cell line, both cell lines being treated with Control (DMSO), compound 33 and compound 52.
It has also been shown that compounds 33 and 52 reduce the expression of the anti-apoptotic proteins Bcl2 and Bcl-xL in these two human diffuse large B-cell lymphoma cell lines, as determined by Western blotting after a 76 h in vitro treatment with compound 33 or 52.

[4] = tested on: DLBCL cell lines; test: Viability of B-cell lymphoma cell lines (Annexin V/7AAD staining); type: cell-based, human; settings: 96 h, 5-40 μM
From the text: FIG. 10E: Viability of various B-cell lymphoma cell lines treated with increasing concentrations of compound 33 (inhibitor 33).
Groups of bars, from the left to the right of FIG. 10E: (i) OCI-Ly10 human diffuse large B-cell lymphoma cell line, (ii) HBL1 human diffuse large B-cell lymphoma cell line, (iii) TMD8 human B cell lymphoma cell line, (iv) OCI-Ly3 human large B-cell lymphoma cell line and (v) U2932 human diffuse large B-cell lymphoma cell line.
In each group of bars, from the left to the right: (i) Control, without treatment, (ii) Compound 33 at 5 μM, (iii) Compound 33 at 10 μM, (iv) Compound 33 at 20 μM, (v) Compound 33 at 30 μM, (vi) Compound 33 at 40 μM.
FIG. 10F: Viability of various B-cell lymphoma cell lines treated with increasing concentrations of compound 52 (inhibitor 52).
Groups of bars, from the left to the right of FIG. 10F: (i) TMD8 human B cell lymphoma cell line and (ii) OCI-Ly3 human large B-cell lymphoma cell line.
In each group of bars, from the left to the right: (i) Control, without treatment (0 μM), (ii) Compound 52 at 5 μM, (iii) Compound 52 at 10 μM, (iv) Compound 52 at 20 μM, (v) Compound 52 at 30 μM, (vi) Compound 52 at 40 μM.

Structure (SMILES)	percentage of interaction of STAT3:HSP110 [1] [%]	hampering of cell proliferation [2]	expression of anti-apoptotic protein Bcl2 [3]	expression of anti-apoptotic protein Bcl-xL [3]	viability of DLBCL cell lines ([4]; TMD8 and OCI-Ly3)	viability of DLBCL cell lines ([4]; OCI-Ly10, HBL1, TMD8, OCI-Ly3 and U2932)
COc1cc(-c2cnc(-c3cnc(-c4cc(OC)c(OC)c(OC)c4)c(C)c3)c(/C=C/c3ccccc3)c2)cc(OC)c1OC [compound 52, (E)-5′-Methyl-3-styryl-5,6′-bis(3,4,5-trimethoxyphenyl)-2,3′-bipyridine]	5	around 40%	reduce	reduce	reduces the viability	–
COc1ccc(-c2ncc(-c3ncc(-c4cc(OC)c(OC)c(OC)c4)cc3/C=C/c3ccccc3)cc2C)cc1OC [compound 33, (E)-6′-(3,4-Dimethoxyphenyl)-5′-methyl-3-styryl-5-(3,4,5-trimethoxyphenyl)-2,3′-bipyridine]	20	around 40%	reduce	reduce	–	reduces the viability
